Data on 1 compound can be found in article PMC8765048 (JCI Insight, 2022).

One data set relates to SARS-CoV-2 P.2 (Zeta). As to the kind of experiment: microbe, parasite or virus in culture. The format is cell-based.
The next data set deals with Salmonella typhimurium. Put plainly: AMES mutagenicity testing (Salmonella typhimurium reverse mutation assay). It is filed as cell-based. The procedure:
The standard AMES (Salmonella typhimurium reverse mutation assay, ref. [43]) was performed by Cyprotex to evaluate the mutagenic potentials of sangivamycin. Approximately 10 million bacteria were exposed in triplicate to sangivamycin (6 concentrations, 1 mg/mL high test concentration), a negative control (vehicle), and a positive control for 90 minutes in medium containing a low concentration of histidine (sufficient for about 2 doublings). The cultures were then diluted into indicator medium lacking histidine and dispensed into 48 wells of 384-well plates (microplate format). Plates were incubated for 48 hours at 37°C. In the microsuspension assay, cells that undergo a mutagenic reversion grow, resulting in a color change that is scored as positive wells. Wells with bacterial growth were counted and compared with those with vehicle control. A dose-dependent increase in the number of colonies of at least 2-fold over baseline (mean + SD of the vehicle control) indicated a positive response.

[1] abbreviates: Severe acute respiratory syndrome coronavirus 2, Calu-3, 24 h.

The structures appear in SMILES notation.

`NC(=O)c1cn([C@@H]2O[C@H](CO)[C@@H](O)[C@H]2O)c2ncnc(N)c12` [Sangivamycin, sangivamycin]: in the data set on SARS-CoV-2 P.2 (Zeta) (P.2 (Zeta), Calu-3 cells), the “SI (selectivity index, CC50/IC50)” value was above 15.2. In the data set on SARS-CoV-2 P.2 (Zeta) (setting [1]), this compound displayed a concentration for half-maximal inhibition (IC50) of 39.6 nM and an IC90 of 122 nM. Also, the AMES genotoxicity test in the data set on Salmonella typhimurium (1 mg/mL [3.2 mM] high test concentration) was above 1 mg/mL. The bacterial mutagenicity entry in the data set on Salmonella typhimurium (up to 3.2 mM) is “no evidence of enhanced bacterial mutagenicity”.

The IC50 is the concentration needed to halve the response being measured. A higher IC50 goes with weaker potency. A word on the IC90: it is the concentration needed for an effect of 90%. A higher IC90 goes with a need for much substance.
